Assay results: patent US20130196320A1, “METHOD FOR IMPROVING CLEAVAGE OF DNA BY ENDONUCLEASE SENSITIVE TO METHYLATION” (CELLECTIS, priority 2010, published 2013)

B1: XPC4: engineered meganuclease (SEQ ID NO: 2) designed to cleave xeroderma pigmentosum group C gene (XPC) (protein)
chain: MANTKYNEEFLLYLAGFVDGDGSIIAQIKPNQSHKFKHALQLTFKVTQKTQRRWFLDKLVDEIGVGYVQDSGSVSNYILSEIKPLHNFLTQLQPFLELKQKQANLALKIIEQLPSAKESPDKFLEVCTWVDQVAALNDSKTRKTTSETVRAVLDSLSEKKKSSPAAGGSDKYNQALSKYNQALSKYNQALSGGGGSNKKFLLYLAGFVDSDGSIIAQIKPNQSHKFKHQLSLAFQVTQKTQRRWFLDKLVDRIGVGYVRDRGSVSDYILSKIKPLHNFLTQLQPFLKLKQKQANLVLKIIEQLPSAKESPDKFLEVCTWVDQVAALNDSKTRKTTSETVRAVLDSLSEKKKSSP

Tests used:
[1] = tested on: RAG target in human RAG1 gene, 293H cells; test: Meganuclease-induced mutagenesis assay at RAG recognition site; format: cell-based; conditions: Empty vector, 1 μM 5-aza-2′-deoxycytidine, RAG locus
Experimental: The human 293H cells (ATCC) were plated at a density of 1.2×10^6 cells per 10 cm dish in complete medium (DMEM supplemented with 2 mM L-glutamine, penicillin (100 IU/ml), streptomycin (100 μg/ml), amphotericin B (Fongizone: 0.25 μg/ml, Invitrogen-Life Science) and 10% FBS). The cells were pre-treated with 5-aza-deoxycytidine at 0.2 μM or 1 μM, 48 hours before transfection and the treatment was maintained 48 hours post-transfection. The medium was changed every day. The cells were transfected with 3 μg of DNA plasmids encoding meganuclease for RAG or 2.5 μg of each monomer CAPNS1 using Lipofectamine 2000 transfection reagent (Invitrogen) according to the manufacturer's protocol.
The efficiency of the meganuclease to promote mutagenesis at its endogenous recognition site was evaluated by sequencing the DNA surrounding the meganuclease cleavage site. Two days post-transfection, genomic DNA was extracted. 200 ng of genomic DNA were used to amplify (PCR amplification) the endogenous locus surrounding the meganuclease cleavage site. PCR amplification is performed to obtain a fragment flanked by specific adaptor sequences [adaptor A: 5′-[…]-NNNN-3′(SEQ ID NO: 46) and adaptor B, 5′-[…]-3′ (SEQ ID NO: 47)] provided by the company offering sequencing service (GATC Biotech AG, Germany) on the 454 sequencing system (454 Life Sciences). The primers sequences used for PCR amplification were:
RAG_F1: 5′-[…]-NNNN-[…] (SEQ ID NO: 57) and
RAG_R1: 5′-[…]-[…]-3′ (SEQ ID NO: 58) and CAPNS1_J3: 5′-[…]-NNNN-[…] (SEQ ID NO: 59) and CAPNS1_R3: 5′-[…]-[…]-3′ (SEQ ID NO: 60). Sequences specific to the locus are underlined. The sequence NNNN in primer F1 is a Barcode sequence (Tag) needed to link the sequence with a PCR product. The percentage of PCR fragments carrying insertion or deletion at the meganuclease cleavage site is related to the mutagenesis induced by the meganuclease through NHEJ pathway in a cell population, and therefore correlates with the meganuclease activity at its endogenous recognition site. 5000 to 10000 sequences were analyzed per conditions.

XPC4.1 DNA target = test: In vitro binding assay, fluorescence anisotropy of fluorescein-labeled XPC4.1 duplex
Experimental: FIG. 7: Spectrofluorimetric titration of fluorescein-labeled XPC4.1 by XPC4. 50 nM of XPC4.1 duplex was incubated with increasing concentrations of XPC4 (from […]) in binding buffer (10 mM Tris-HCl, 150 mM NaCl, 10 mM CaCl2, 10 mM DTT, pH8) at 25° C. After 30 minutes incubation, the fluorescence anisotropy of the mixture was recorded with a Pherastar Plus (BMG Labtech) operating in fluorescence polarization end point mode with excitation and emission wavelengths set to 495 and 520 nm respectively. Normalized fluorescence anisotropy is plotted as a function of XPC4 concentration. Apparent dissociation constant were determined by fitting raw data by an hyperbolic function (Ax=(A∞*[Meganuclease])/(Kd+[Meganuclease]) with Ax, the fluorescence anisotropy value obtained at a given meganuclease concentration, A∞ the fluorescence anisotropy value obtained at saturating concentration of meganuclease and Kd the dissociation constant of the equilibrium studied).
Fluorescein labeled C1234 oligonucleotides were synthesized and HPLC-purified by Eurogentec. […] C 1234 duplex and fluorescein final concentrations were assessed by spectrophotometry using their respective extinction coefficients ε260nm=62900 M^−1 cm^−1 and ε495nm=83000 M^−1 cm^−1. […]

Molecule	mutagenesis, PCR fragments carrying a mutation [1] [%]	mutagenesis, PCR fragments carrying a mutation ([1]; listed as 5-aza-2′-deoxycytidine) [%]	Kd (XPC4.1 DNA target; XPC4.1_Me −11a/−10b & +10a/+11b (fully methylated)) [nM]	Kd (XPC4.1 DNA target; unmethylated XPC4.1) [nM]
Nc1ncn([C@H]2C[C@H](O)[C@@H](CO)O2)c(=O)n1 [5-aza-2′deoxycytidine, reference compound]	0.04	0.04 ± 0.05		
B1			127 ± 22	108 ± 21
